According to ChEMBL document CHEMBL3352411, “Structure-activity relationships (SAR) and structure-kinetic relationships (SKR) of bicyclic heteroaromatic acetic acids as potent CRTh2 antagonists II: lead optimization” (Bioorg Med Chem Lett, 2014):

Legend:
[1] = target: T1, Prostaglandin D2 receptor 2 (Homo sapiens, UniProt Q9Y5Y4); assay: Antagonist activity at CRTh2 receptor (unknown origin) overexpressed in CHOK1 cell membranes assessed as inhibition of [35S]-GTPgammaS binding measured after 2 hrs by liquid scintillation counting analysis; assay type: functional, CHO-K1
T1 sequence (Q9Y5Y4 whole entry): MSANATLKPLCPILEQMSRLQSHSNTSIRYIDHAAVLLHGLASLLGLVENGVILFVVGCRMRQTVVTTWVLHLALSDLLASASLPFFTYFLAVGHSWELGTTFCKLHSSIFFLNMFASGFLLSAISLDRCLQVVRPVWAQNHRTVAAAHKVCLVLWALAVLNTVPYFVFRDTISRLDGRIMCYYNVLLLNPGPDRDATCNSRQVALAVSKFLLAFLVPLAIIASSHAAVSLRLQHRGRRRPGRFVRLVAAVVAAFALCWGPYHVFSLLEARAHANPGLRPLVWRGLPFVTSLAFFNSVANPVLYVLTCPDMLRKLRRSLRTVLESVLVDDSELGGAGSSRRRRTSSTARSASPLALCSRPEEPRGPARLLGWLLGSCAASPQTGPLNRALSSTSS

[2] = target: T2, Prostaglandin D2 receptor 2 (Homo sapiens) (UniProt Q9Y5Y4); assay: Binding affinity to CRTh2 receptor (unknown origin) overexpressed in CHOK1 cell membranes assessed as dissociation half life at 10 times IC50 concentration preincubated for 1 hr with 0.1 nM to 100 uM PGD2 and [35S]-GTPgammaS by liquid scintillation counting analysis; assay type: functional; details: CHO-K1
T2 sequence (whole entry): T1 sequence (Q9Y5Y4 whole entry)

[3] = Terminal half life in Wistar rat at 1 mg/kg, iv; assay type: ADME, organism-based; design: dose 1 mg/kg, route intravenous; details: in vivo, read-out: beta t1/2 (converted)
[4] = Cmax in Wistar rat at 1 mg/kg, iv; assay type: ADME, organism-based; design: dose 1 mg/kg, route intravenous; details: in vivo
[5] = Clearance in Wistar rat at 1 mg/kg, iv; assay type: ADME, organism-based; design: dose 1 mg/kg, route intravenous; details: in vivo
[6] = AUC (0 to infinity) in Wistar rat at 1 mg/kg, iv; assay type: ADME, organism-based; design: time infinity, dose 1 mg/kg, route intravenous; details: plasma
[7] = Volume of distribution at steady state in Wistar rat at 1 mg/kg, iv; assay type: ADME, organism-based; design: dose 1 mg/kg, route intravenous; details: in vivo, read-out: Vdss
[8] = Mean residence time in Wistar rat at 1 mg/kg, iv; assay type: ADME, organism-based; design: dose 1 mg/kg, route intravenous; details: in vivo
[9] = Oral bioavailability in Wistar rat at 10 mg/kg; assay type: ADME, organism-based; details: in vivo

SMILES | IC50 [1] [nM] | T1/2 [2] [h] | further results
Cc1ccc2c(CC(=O)O)cn(-c3ccc(C(F)(F)F)cc3CN(C(=O)C3CC3)C(C)C)c2n1 | 28 | 9.2 | –
CCN(Cc1cc(C(F)(F)F)ccc1-c1cc(CC(=O)O)n2cccnc12)C(=O)C1CC1 | – | 2 | half-life [3]: 4.6 h; Cmax [4]: 910 ng/mL; clearance [5]: 26 mL/min/kg; AUC(0-inf) [6]: 639 ng·h/mL; Vd [7]: 4.2 L/kg; MRT [8]: 2.6 h
CCN(Cc1cc(C(F)(F)F)ccc1-n1cc(CC(=O)O)c2ccccc21)C(=O)C1CC1 | – | 2.5 | –
CCN(Cc1cc(C(F)(F)F)ccc1-c1nn(CC(=O)O)c2cccc(C)c12)C(=O)C1CC1 | – | 2.3 | –
CCN(Cc1cc(C(F)(F)F)ccc1-n1cc(CC(=O)O)c2ccc(C)nc21)C(=O)c1ccccn1 | 97 | – | –
CCN(Cc1cc(C(F)(F)F)ccc1-n1cc(CC(=O)O)c2ccc(C)cc21)C(=O)C1CC1 | 119 | – | –
CCN(Cc1cc(C(F)(F)F)ccc1-n1cc(CC(=O)O)c2ccc(OC)nc21)C(=O)C1CC1 | 135 | – | –
CCN(Cc1cc(C(F)(F)F)ccc1-n1cc(CC(=O)O)c2ccc(C)nc21)C(=O)CN(C)C | 163 | – | –
CCN(Cc1cc(C(F)(F)F)ccc1-c1nn(CC(=O)O)c2ccc(F)c(Cl)c12)C(=O)C1CC1 | – | 3.3 | –
CCN(Cc1cc(F)ccc1-n1cc(CC(=O)O)c2cccnc21)C(=O)C1CC1 | – | 1.3 | –
CCN(Cc1cc(C(F)(F)F)ccc1-n1cc(CC(=O)O)c2ccc(C)nc21)C(C)=O | – | 6.4 | –
CCN(Cc1cc(C(F)(F)F)ccc1-c1nn(CC(=O)O)c2ccccc12)C(=O)C1CC1 | 19 | – | –
CCN(Cc1cc(S(C)(=O)=O)ccc1-n1cc(CC(=O)O)c2ccc(C)nc21)C(=O)C1CC1 | 40 | – | –
CCN(Cc1cc(C(F)(F)F)ccc1-n1cc(CC(=O)O)c2cccnc21)C(=O)C1CC1 | – | 2.3 | –
CCN(Cc1cc(C(F)(F)F)ccc1-c1nn(CC(=O)O)c2ccc(Cl)c(F)c12)C(=O)C1CC1 | 15 | 10.5 | –
Cc1ccc2c(CC(=O)O)cn(-c3ccc(C(F)(F)F)cc3CN(CC3CC3)C(=O)C3CC3)c2n1 | 11 | 32 | –

SMILES | IC50 [1] [nM] | T1/2 [2] [h] | further results
Cc1ccc2c(CC(=O)O)cn(-c3ccc(C(F)(F)F)cc3CN(CCO)C(=O)C3CC3)c2n1 | 14 | 7.8 | –
CCN(Cc1cc(C(F)(F)F)ccc1-c1cn(CC(=O)O)c2cccnc12)C(=O)C1CC1 | 20 | 1.9 | –
CCN(Cc1cc(C(F)(F)F)ccc1-n1cc(CC(=O)O)c2ccc(C(F)(F)F)nc21)C(=O)C1CC1 | 54 | – | –
CCN(Cc1cc(C(F)(F)F)ccc1-c1nn(CC(=O)O)c2ccc(F)cc12)C(=O)C1CC1 | – | 1.4 | –
CCN(Cc1cc(C(F)(F)F)ccc1-n1cc(CC(=O)O)c2ccc(C3CC3)nc21)C(=O)C1CC1 | 49 | 5.4 | –
CCN(Cc1cc(C(F)(F)F)ccc1-c1nn(CC(=O)O)c2cccc(OC)c12)C(=O)C1CC1 | 23 | 2.4 | –
CCN(Cc1ccccc1-n1cc(CC(=O)O)c2ccc(C)nc21)C(=O)C1CC1 | – | 8.8 | –
CCN(Cc1cc(C(F)(F)F)ccc1-c1cn(CC(=O)O)c2ccc(C(F)(F)F)nc12)C(=O)C1CC1 | 15 | 25 | –
CCN(Cc1cc(F)ccc1-c1cn(CC(=O)O)c2ccccc12)C(=O)C1CC1 | – | 2 | half-life [3]: 1.9 h; Cmax [4]: 431 ng/mL; clearance [5]: 76 mL/min/kg; AUC(0-inf) [6]: 222 ng·h/mL; Vd [7]: 5.4 L/kg; MRT [8]: 1.2 h
CCN(Cc1cc(F)ccc1-c1cn(CC(=O)O)c2ccc(C(F)(F)F)cc12)C(=O)C1CC1 | 14 | 20 | –
CCN(Cc1cc(C(F)(F)F)ccc1-c1nn(CC(=O)O)c2ccc(Cl)cc12)C(=O)C1CC1 | – | 2.8 | –
CCN(Cc1cc(C(F)(F)F)ccc1-c1cn(CC(=O)O)c2ccc(C)nc12)C(=O)C1CC1 | 17 | 21 | half-life [3]: 0.5 h; Cmax [4]: 366 ng/mL; clearance [5]: 134 mL/min/kg; AUC(0-inf) [6]: 126 ng·h/mL; Vd [7]: 2.7 L/kg; MRT [8]: 0.3 h
CCN(Cc1cc(C(F)(F)F)ccc1-c1nn(CC(=O)O)c2cccc(C#N)c12)C(=O)C1CC1 | 33 | 1.2 | –
CCN(Cc1cc(C(F)(F)F)ccc1-c1nn(CC(=O)O)c2cc(F)ccc12)C(=O)C1CC1 | 127 | – | –
CCN(Cc1cc(C(F)(F)F)ccc1-c1cc(CC(=O)O)n2ccc(C)nc12)C(=O)C1CC1 | – | 19 | –

More lines, in order of falling IC50 [1], values ahead:

IC50 [1] [nM] | T1/2 [2] [h] | SMILES | further results
11 | 29 | CCN(Cc1cc(C(F)(F)F)ccc1-n1cc(CC(=O)O)c2ccc(C(F)F)nc21)C(=O)C1CC1 | –
11 | 27 | CCN(Cc1ccccc1-n1cc(CC(=O)O)c2ccc(C(F)(F)F)cc21)C(=O)C1CC1 | half-life [3]: 6.6 h; Cmax [4]: 1900 ng/mL; clearance [5]: 16 mL/min/kg; AUC(0-inf) [6]: 1070 ng·h/mL; Vd [7]: 3.2 L/kg; MRT [8]: 3.4 h
10 | 9.9 | CCc1ccc2c(CC(=O)O)cn(-c3ccc(C(F)(F)F)cc3CN(CC)C(=O)C3CC3)c2n1 | –
10 | 21 | CCN(Cc1cc(C(F)(F)F)ccc1-n1cc(CC(=O)O)c2ccc(C)nc21)C(=O)C1CC1 | half-life [3]: 4.9 h; Cmax [4]: 1610 ng/mL; clearance [5]: 14 mL/min/kg; AUC(0-inf) [6]: 1220 ng·h/mL; Vd [7]: 1.8 L/kg; MRT [8]: 2.3 h; bioavailability [9]: 27%
10 | 24 | CCN(Cc1cc(C(F)(F)F)ccc1-n1cc(CC(=O)O)c2ccc(C)nc21)C(=O)C1CCC1 | –
9 | 1.8 | CCN(Cc1cc(C(F)(F)F)ccc1-c1nn(CC(=O)O)c2ccc(C)cc12)C(=O)C1CC1 | –
9 | 21 | CCN(Cc1cc(C(F)(F)F)ccc1-n1cc(CC(=O)O)c2ccc(C)nc21)C(=O)COC | –
7 | 22 | CCN(Cc1cc(C(F)(F)F)ccc1-n1cc(CC(=O)O)c2ccc(C)nc21)C(=O)CC1CC1 | –
6.3 | 3.2 | CCN(Cc1cc(C(F)(F)F)ccc1-c1nn(CC(=O)O)c2cccc(Cl)c12)C(=O)C1CC1 | –
6 | 24 | CCN(Cc1cc(C(F)(F)F)ccc1-n1cc(CC(=O)O)c2ccc(C)nc21)C(=O)Cc1ccccc1 | –
5.9 | 24 | CCN(Cc1cc(C)ccc1-n1cc(CC(=O)O)c2ccc(C)nc21)C(=O)C1CC1 | –
5.8 | 16 | CCN(Cc1cc(OC(F)(F)F)ccc1-n1cc(CC(=O)O)c2ccc(C)nc21)C(=O)C1CC1 | –
5.2 | 31 | CCN(Cc1cc(Cl)ccc1-n1cc(CC(=O)O)c2ccc(C)nc21)C(=O)C1CC1 | –
5 | 26 | CCN(Cc1cc(C(F)(F)F)ccc1-n1cc(CC(=O)O)c2ccc(C)nc21)C(=O)NCc1ccccc1 | –
4.7 | 11 | CCN(Cc1cc(F)ccc1-n1cc(CC(=O)O)c2ccc(C)nc21)C(=O)C1CC1 | –
4.3 | 5 | CCN(Cc1cc(C(F)(F)F)ccc1-c1nn(CC(=O)O)c2cccc(F)c12)C(=O)C1CC1 | –
4.2 | 26 | CCN(Cc1cc(C(F)(F)F)ccc1-c1cc(CC(=O)O)c2ccc(C)nn12)C(=O)C1CC1 | –
4 | 40 | Cc1ccc2c(CC(=O)O)cn(-c3ccc(C(F)(F)F)cc3CN(CCOc3ccccc3)C(=O)C3CC3)c2n1 | –
4 | 7 | COCCN(Cc1cc(C(F)(F)F)ccc1-n1cc(CC(=O)O)c2ccc(C)nc21)C(=O)C1CC1 | –
